Residues, ends and D or L forms follow the SMILES beside them.
Key:
[1] = tested on: primary human airway epithelia; experiment: Epithelial integrity (TER, FITC-Dextran diffusion) and toxicity; format: cell-based
Description: In panel (A), epithelial cells were seeded on transwells and treated with a single dose of PBS, TAT-scramble or TAT-PDZ3 (TAT-CAR^Ex8 or TAT-ESAM) peptides (50 μM) daily for 16 days. Transepithelial resistance (TER) was measured every other day for 16 days to indicate the amount of epithelial polarization. […] Each condition represents the average of 4 replicates. (B) FITC-Dextran 4 kDa diffusion across treated epithelia in the absence of EDTA. […] (C) Pre-treatment with EDTA to disrupt tight junctions increased Dextran 4 kDa permeability in all conditions. FITC-Dextran 4 kDa was added to the apical membrane compartment and Dextran present in the basolateral media was measured and quantified. […] FITC-Dextran 70 kDa was added to the apical membrane compartment and Dextran in the basolateral media was measured and quantified.
(A) Primary human airway epithelial cells were treated with a single dose of PBS, TAT-scramble (50 μM), or TAT-PDZ1 peptides (50 μM) each day for 14 days. Transepithelial resistance (TER) was taken every other day for 14 days. No change in TER was noticeable upon treatment with TAT-PDZ1 peptides indicating similar epithelium formation. (B) FITC-Dextran 4 kDa diffusion across treated epithelia in the presence or absence of EDTA. There was no difference in Dextran 4 kDa diffusion among treatments indicating intact epithelial tight junctions. Pre-treatment with EDTA increased Dextran 4 kDa permeability similarly in all conditions indicating disruption of epithelial tight junctions. FITC-Dextran 4 kDa was added to the apical membrane and the diffused Dextran was collected from the basolateral media and measured. (C) There was no difference in Dextran 70 kDa diffusion among treatments indicating intact epithelial tight junctions. FITC-Dextran 70 kDa was added to the apical membrane and the diffused Dextran was collected from the basolateral media and measured.

[2] = molecular target: MAGI-1 PDZ1 domain (Homo sapiens, UniProt Q96QZ7); experiment: Ligand binding assay with purified MAGI-1 PDZ1 domain
Chain of MAGI-1 PDZ1 domain (Q96QZ7 472-554 limits assumed): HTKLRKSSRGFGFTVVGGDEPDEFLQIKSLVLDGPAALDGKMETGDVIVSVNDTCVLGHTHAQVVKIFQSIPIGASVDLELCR
Excerpt: Ligand binding assay between TAT-ESAM and purified MAGI-1 PDZ1 or PDZ-3.
MAGI-1 PDZ3 domain was used as a control.

[3] = tested on: CAR^Ex8; experiment: Western blot / apical surface biotinylation of CAR^Ex8 in MDCK epithelia; format: cell-based, canine
Excerpt: (§1) MAGI-1 PDZ binding peptides (BP) can alter CAR^EX8 apical protein levels and AdV infection. […] A) MAGI-1 PDZ1 can rescue CAR^Ex8 expression while PDZ3 decreases CAR^EX8 expression. B) Peptides that bind to PDZ3 will prevent degradation of CAR^Ex8 and rescue CAR^EX8 expression and C) peptides that bind to PDZ1 will prevent rescue of CAR^Ex8 and […] CAR^Ex8 degradation. D) Apical surface-specific biotinylation of polarized MDCK epithelia treated with PDZ1 binding peptide decreases apical levels of CAR^EX8 while PDZ3 binding peptide increase apical CAR^EX8, relative to control. E) Treatment with PDZ3 binding peptide increases while PDZ1 binding peptide decreases AdV5-β-Gal entry as determined by qPCR for viral genomes (Vg). F) AdV5-Cre infection turns cells from red (uninfected) to green (infected) in tDT-mouse airway epithelial cells. Baseline infection in control-peptide treated airway epithelia show an even distribution of uninfected red cells and infected green cells.
(§2) (A) Western blotting of MDCK cells treated with either TAT-CAR^Ex8 or control TAT-CAR^Ex8-AA. […] (C) Polarized MDCK cells were treated with either TAT-CAR^Ex8 or TAT-ESAM and the apical surface subjected to apical surface biotinylation, followed by neutravidin pull down and Western blot of apical surface proteins. […] (E) TAT-cell permeable peptides interrupt MAGI-1-CAR^Ex8 interactions. […]

[4] = tested on: AdV; experiment: qPCR of AdV viral genome (transduction/entry) in MDCK epithelia; format: cell-based, canine; conditions: versus control
Excerpt: as §1, §2

[5] = tested on: CAR^Ex8; experiment: Immunocytochemistry of CAR^Ex8 in polarized MDCK cells; format: cell-based, canine; conditions: 50 μM
Excerpt: CAR^Ex8 is localized mainly at the apical surface of polarized MDCK cells. […] Red (CAR^Ex8), Green (MAGI-1, a junctional protein), Blue (nucleus, DAPI). 60× oil immersion confocal microscopy.
(A) CAR^Ex8 (red) localizes mainly at the apical membrane of MDCK epithelial cells (see xz section). […] 60× oil immersion confocal microscopy.

[6] = tested on: CAR^Ex8; experiment: Western blot of CAR^Ex8 in well differentiated primary human airway epithelia; format: cell-based; conditions: versus control
Excerpt: (A) Western blotting from human airway epithelia treated with either TAT-scramble or TAT-PDZ1 peptides (TAT-E6 or TAT-NET1). […] Actin was used to confirm equal protein loading.

[7] = tested on: AdV; experiment: qPCR of AdV viral genome in primary human airway epithelia; format: cell-based; conditions: versus control

Row | Structure (SMILES) | Transepithelial resistance (TER) ([1]; 50 μM daily for 16 days, versus control) | FITC-Dextran 70 kDa diffusion across epithelia ([1]; TAT-PDZ3 peptide study) | FITC-Dextran 4 kDa diffusion across epithelia ([1]; absence of EDTA, TAT-PDZ3 peptide study) | Toxicity to epithelia ([1]; primary human airway epithelia) | Kd [2] [nM] | CAR^Ex8 protein level (Western blotting) [3] | AdV genomic transduction / entry (qPCR of viral genome) [4] | Effect on junctional staining of MAGI-1 [5] | Immunolocalization of endogenous CAR^Ex8 [5] | CAR^Ex8 protein level (Western blotting) [6] | AdV genomic transduction / entry (qPCR of viral genome) [7]
1 | CC(C)C[C@H](NC(=O)[C@H](CO)NC(=O)CNC(=O)[C@H](C)NC(=O)[C@H](CCC(N)=O)NC(=O)[C@H](CO)NC(=O)[C@H](CCC(N)=O)NC(=O)[C@H](C)NC(=O)[C@H](CCC(N)=O)NC(=O)[C@@H]1CCCN1C(=O)[C@@H]1CCCN1C(=O)[C@H](CCCNC(=N)N)NC(=O)[C@H](CCCNC(=N)N)NC(=O)[C@H](CCCNC(=N)N)NC(=O)[C@H](CCC(N)=O)NC(=O)[C@H](CCCNC(=N)N)NC(=O)[C@H](CCCNC(=N)N)NC(=O)[C@H](CCCCN)NC(=O)[C@H](CCCCN)NC(=O)[C@H](CCCNC(=N)N)NC(=O)CN)C(=O)N[C@H](C(=O)O)C(C)C [TAT-ESAM] (H-GRKKRRQRRRPPQAQSQAGSLV-OH; N-terminus and C-terminus assumed) | No difference | no difference | no difference | no overt toxicity |  |  |  |  |  |  | 
2 | CC(C)C[C@H](NC(=O)[C@H](CCC(N)=O)NC(=O)[C@@H](NC(=O)[C@H](CCC(=O)O)NC(=O)[C@H](CCCNC(=N)N)NC(=O)[C@H](CCCNC(=N)N)NC(=O)[C@@H](NC(=O)[C@H](CCCNC(=N)N)NC(=O)[C@H](CO)NC(=O)[C@H](CCC(N)=O)NC(=O)[C@@H]1CCCN1C(=O)[C@@H]1CCCN1C(=O)[C@H](CCCNC(=N)N)NC(=O)[C@H](CCCNC(=N)N)NC(=O)[C@H](CCCNC(=N)N)NC(=O)[C@H](CCC(N)=O)NC(=O)[C@H](CCCNC(=N)N)NC(=O)[C@H](CCCNC(=N)N)NC(=O)[C@H](CCCCN)NC(=O)[C@H](CCCCN)NC(=O)[C@H](CCCNC(=N)N)NC(=O)CN)[C@@H](C)O)[C@@H](C)O)C(=O)O [TAT-E6] (H-GRKKRRQRRRPPQSRTRRETQL-OH; N-terminus and C-terminus assumed) |  |  |  |  | 15 ± 4 | marked decrease | significant decrease | minor to no effect | delocalization of CAR^Ex8 to the nuclear compartment | marked decrease | significant decrease

Reference: US10736971B2, “Peptide-based molecules for modulating car expression or accessibility and uses thereof” (Wright State University, priority 2015, dated 2020)
